Reference: ChEMBL document CHEMBL1201862, “PubChem BioAssay data set” (2004)
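Assay format: 96-well plates, 48-hour exposure. GI50 is the concentration that inhibits growth by half.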 The source made the active and inactive calls. No stated cut-off is given here; in the data, active = GI50 up to about 1.1 µM and inactive = higher.

What was measured:
Test in all cases: NCI tumour cell line growth inhibition, 48 h
[1] = system: U-251
[2] = system: UACC-257
[3] = system: NCI-H522
[4] = system: OVCAR-8
[5] = system: HL-60
[6] = system: KM12
[7] = system: SF-268
[8] = system: HOP-62
[9] = system: K562
[10] = system: MCF7
[11] = system: MDA-N
[12] = system: SF-295
[13] = system: A498
[14] = system: MOLT-4
[15] = system: A549
[16] = system: HCT-15
[17] = system: 786-0
[18] = system: CCRF-CEM
[19] = system: SR
[20] = system: EKVX
[21] = system: Malme-3M
[22] = system: LOX IMVI
[23] = system: MDA-MB-435
[24] = system: Hs-578T
[25] = system: OVCAR-3
[26] = system: NCI/ADR-RES
[27] = system: UACC-62
[28] = system: HT-29
[29] = system: SK-MEL-2
[30] = system: SK-MEL-28
[31] = system: NCI-H460
[32] = system: SK-MEL-5
[33] = system: SNB-19
[34] = system: SW-620
[35] = system: COLO 205
[36] = system: HCC 2998
[37] = system: M14
[38] = system: SF-539
[39] = system: UO-31
[40] = system: SK-OV-3
[41] = system: RPMI-8226
[42] = system: T47D
[43] = system: NCI-H23
[44] = system: ACHN
[45] = system: IGROV-1
[46] = system: BT-549
[47] = system: PC-3
[48] = system: OVCAR-4
[49] = system: DU-145
[50] = system: OVCAR-5
[51] = system: CAKI-1
[52] = system: HCT-116
[53] = system: RXF 393
[54] = system: HOP-92
[55] = system: SNB-75
[56] = system: MDA-MB-231

Measured: GI50

CN1CCN(Cc2ccc(C(=S)Nc3ccccc3)s2)CC1
inactive: [1] 64.7 µM | [2] 33.5 µM | [3] 31 µM | [4] 14.5 µM | [5] 19.9 µM | [6] 36.3 µM | [7] > 100 µM | [8] 93.8 µM | [9] 25.9 µM | [10] 41.9 µM | [11] 35.6 µM | [12] 32.3 µM | [13] 33.7 µM | [14] 36.8 µM | [15] 55 µM | [17] 31.9 µM | [18] 24 µM | [19] 21.2 µM | [20] 65.3 µM | [21] 89.5 µM | [22] 15.7 µM | [23] 31.9 µM | [24] 39.2 µM | [25] > 100 µM | [26] 32.9 µM | [27] 20.2 µM | [28] 19.6 µM | [29] 41.8 µM | [30] 15.5 µM | [31] 36.4 µM | [32] 17.6 µM | [33] > 100 µM | [34] 26.7 µM | [35] 22.3 µM | [36] 33.1 µM | [37] 16.7 µM | [38] 82.4 µM | [39] 36.3 µM | [40] 86.1 µM | [41] 28.6 µM | [42] 59.2 µM | [43] 18.5 µM | [44] 92 µM | [45] 10.4 µM | [46] 15.9 µM | [47] 69.7 µM | [48] 54.1 µM | [49] > 100 µM | [50] 45.8 µM | [51] > 100 µM | [52] 42.5 µM
21 µM: [16]

COc1ccc(CN2C[C@H]3[C@@H](CC(=O)O[C@H]3C)CC2=O)cc1
> 100 µM: [16]
inactive: [1] > 100 µM | [2] > 100 µM | [3] > 100 µM | [4] > 100 µM | [6] > 100 µM | [7] > 100 µM | [8] > 100 µM | [9] > 100 µM | [10] > 100 µM | [11] > 100 µM | [12] > 100 µM | [13] > 100 µM | [14] > 100 µM | [15] > 100 µM | [53] > 100 µM | [17] > 100 µM | [18] > 100 µM | [19] > 100 µM | [54] > 100 µM | [20] > 100 µM | [21] > 100 µM | [23] > 100 µM | [24] > 100 µM | [25] > 100 µM | [26] > 100 µM | [27] > 100 µM | [28] > 100 µM | [29] > 100 µM | [55] > 100 µM | [30] > 100 µM | [31] > 100 µM | [32] > 100 µM | [33] > 100 µM | [34] > 100 µM | [56] > 100 µM | [35] > 100 µM | [36] > 100 µM | [37] > 100 µM | [39] > 100 µM | [40] > 100 µM | [41] > 100 µM | [43] > 100 µM | [44] > 100 µM | [45] > 100 µM | [46] > 100 µM | [47] > 100 µM | [48] > 100 µM | [49] > 100 µM | [50] > 100 µM | [51] > 100 µM | [52] > 100 µM
